This passage reports Emax and EC50 results from patent publication US20230265151A1, “GIP/GLP1 CO-AGONIST COMPOUNDS” (priority 2020, published 2023).

Holding throughout (format): cell-based
One assay deals with T1, hGIPR (Homo sapiens, UniProt P48546).
T1 construct: expressed in transfected cells
T1 sequence (P48546 22-466): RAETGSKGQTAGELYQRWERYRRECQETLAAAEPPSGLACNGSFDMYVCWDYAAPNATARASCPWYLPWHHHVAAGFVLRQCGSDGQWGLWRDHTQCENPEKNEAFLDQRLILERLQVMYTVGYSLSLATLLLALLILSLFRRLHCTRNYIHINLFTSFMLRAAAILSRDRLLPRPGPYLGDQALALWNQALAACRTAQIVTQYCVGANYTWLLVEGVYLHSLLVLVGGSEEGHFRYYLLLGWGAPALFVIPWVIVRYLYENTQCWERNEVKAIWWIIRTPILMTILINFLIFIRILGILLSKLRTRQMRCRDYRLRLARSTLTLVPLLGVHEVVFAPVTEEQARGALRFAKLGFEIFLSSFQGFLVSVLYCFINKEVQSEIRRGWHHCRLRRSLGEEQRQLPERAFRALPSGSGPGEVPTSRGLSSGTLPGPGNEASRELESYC
Kind of assay: Functional cAMP formation (HTRF) in HEK-293 clonal cells expressing hGIPR, 0.1% bovine casein, without or with 1.0% human serum albumin. The note with it: 37° C.; for Emax: read-out: hGIPR Emax, % ± SEM; for EC50: geometric mean, read-out: hGIPR EC50, nM (SEM, n). The method, boiled down: (§1)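 Cells were stimulated with peptide for 30 min at 37° C, then lysed in buffer carrying cAMP-d2 and anti-cAMP Eu3+-cryptate for a competitive HTRF read after at least 60 min at room temperature. The 665/620 nm ratio was converted to nM cAMP against a standard curve.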

In the next assay the target is T2, hGCGR (Homo sapiens, UniProt P47871).
T2 construct: expressed in transfected cells
In words: Functional cAMP formation (HTRF) in HEK-293 clonal cells expressing hGCGR, 0.1% bovine casein, without or with 1.0% human serum albumin. To be noted: geometric mean, read-out: hGCGR EC50, nM (SEM, n). The method, boiled down: as §1

A further assay has as its target hGLP-1R (Homo sapiens, UniProt P43220). In words: Functional cAMP formation (HTRF) in HEK-293 clonal cells expressing hGLP-1R, 0.1% bovine casein, without or with 1.0% human serum albumin. Set-up: expressed in transfected cells. The note with it: for Emax: read-out: hGLP-1R Emax, % ± SEM; for EC50: geometric mean, read-out: hGLP-1R EC50, nM (SEM, n). The procedure, abridged:
as §1

[1] abbreviates: HEK293, percent of maximal response to GIP(1-42)NH2, 0.1% bovine casein, arithmetic mean.
Where [2] appears, read: cAMP, incubated at 37° C., 0.1% bovine casein (no human serum albumin).
The mark [3] stands for this setting: HEK293, cAMP, 0.1% bovine casein, percent of maximal response to GIP(1-42)NH2, arithmetic mean.
[4] abbreviates: cAMP, 0.1% bovine casein (no human serum albumin).
Setting [5] is: 0.1% bovine casein and 1.0% human serum albumin, 37° C.
The mark [6] stands for this setting: cAMP, 37° C., 0.1% bovine casein (no human serum albumin).
Setting [7] is: HEK293, cAMP, 37° C., 0.1% bovine casein, percent of maximal response to GLP-1(7-36)NH2, arithmetic mean.
[8] abbreviates: 0.1% bovine casein and 1.0% human serum albumin.
Where [9] appears, read: HEK293, 0.1% bovine casein and 1.0% human serum albumin, 37° C., percent of maximal response to GLP-1(7-36)NH2.

Like-named read-outs stand apart in the source and are kept apart here.

T2 sequence (P47871 26-477): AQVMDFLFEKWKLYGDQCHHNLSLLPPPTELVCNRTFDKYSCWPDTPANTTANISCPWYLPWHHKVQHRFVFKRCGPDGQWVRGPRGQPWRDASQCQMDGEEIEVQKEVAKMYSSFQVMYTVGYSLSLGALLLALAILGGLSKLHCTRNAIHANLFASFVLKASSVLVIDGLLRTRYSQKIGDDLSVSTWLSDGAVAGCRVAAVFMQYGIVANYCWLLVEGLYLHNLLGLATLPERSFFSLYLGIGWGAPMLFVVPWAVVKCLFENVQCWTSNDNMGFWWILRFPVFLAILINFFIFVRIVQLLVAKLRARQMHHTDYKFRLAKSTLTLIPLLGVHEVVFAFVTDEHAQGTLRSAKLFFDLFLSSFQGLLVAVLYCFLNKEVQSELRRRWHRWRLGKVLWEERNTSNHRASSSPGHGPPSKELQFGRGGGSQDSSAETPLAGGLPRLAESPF
Chain of hGLP-1R (P43220 24-463): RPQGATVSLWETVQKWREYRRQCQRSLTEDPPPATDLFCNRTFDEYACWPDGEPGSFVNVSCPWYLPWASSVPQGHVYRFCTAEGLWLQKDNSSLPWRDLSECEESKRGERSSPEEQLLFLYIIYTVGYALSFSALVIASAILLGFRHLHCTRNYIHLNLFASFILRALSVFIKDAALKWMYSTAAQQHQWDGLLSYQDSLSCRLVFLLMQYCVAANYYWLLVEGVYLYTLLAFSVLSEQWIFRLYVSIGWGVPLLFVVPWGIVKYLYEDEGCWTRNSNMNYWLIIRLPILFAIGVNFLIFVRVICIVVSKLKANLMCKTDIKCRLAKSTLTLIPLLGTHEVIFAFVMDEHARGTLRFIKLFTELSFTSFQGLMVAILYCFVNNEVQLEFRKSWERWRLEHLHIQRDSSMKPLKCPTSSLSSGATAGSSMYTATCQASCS

`CC[C@H](C)[C@H](NC(=O)[C@H](CC(C)C)NC(=O)[C@](C)(Cc1ccc(O)cc1)NC(=O)[C@@H](CCC(=O)O)NC(=O)[C@@H](NC(=O)[C@H](Cc1ccccc1)NC(=O)[C@H](CCC(=O)O)NC(=O)[C@H](Cc1ccncc1)NC(=O)[C@H](CCC(N)=O)NC(=O)[C@H](C)NC(=O)[C@H](CCCCNC(=O)COCCOCCNC(=O)COCCOCCNC(=O)CC[C@H](NC(=O)CCCCCCCCCCCCC(=O)O)C(=O)O)NC(=O)[C@H](CCCN)NC(=O)[C@H](CC(=O)O)NC(=O)[C@H](CC(C)C)NC(=O)[C@](C)(CC(C)C)NC(=O)[C@@H](NC(=O)[C@H](CO)NC(=O)[C@H](Cc1ccncc1)NC(=O)[C@H](CC(=O)O)NC(=O)[C@H](CO)NC(=O)[C@@H](NC(=O)[C@](C)(Cc1ccccc1F)NC(=O)[C@@H](NC(=O)CNC(=O)[C@H](CCC(=O)O)NC(=O)C(C)(C)NC(=O)[C@@H](N)Cc1ccc(O)cc1)[C@@H](C)O)[C@@H](C)O)[C@@H](C)CC)[C@@H](C)CC)C(=O)N[C@@H](CCC(=O)O)C(=O)NCC(=O)NCC(=O)N[C@@H](CCCCNC(=O)COCCOCCNC(=O)COCCOCCNC(=O)CC[C@H](NC(=O)CCCCCCCCCCCCC(=O)O)C(=O)O)C(=O)N[C@@H](CO)C(=O)N[C@@H](CO)C(=O)NCC(=O)N[C@@H](C)C(=O)N1CCC[C@H]1C(=O)N1CCC[C@H]1C(=O)N1CCC[C@H]1C(=O)N[C@@H](CO)C(N)=O` [Example 156]: the Emax at hGIPR (setting [1]) worked out at 89.9%; at hGLP-1R (HEK293, percent of maximal response to GLP-1(7-36)NH2, 37° C., 0.1% bovine casein, arithmetic mean), 110%. In addition, the EC50 at hGCGR (setting [2]) was more than 9950 nM.

For the compound `CC[C@H](C)[C@H](NC(=O)[C@H](CCCN)NC(=O)[C@H](CC(=O)O)NC(=O)[C@H](CC(C)C)NC(=O)[C@](C)(CC(C)C)NC(=O)[C@@H](NC(=O)[C@H](CO)NC(=O)[C@H](Cc1ccc2ccccc2c1)NC(=O)[C@H](CC(=O)O)NC(=O)[C@H](CO)NC(=O)[C@@H](NC(=O)[C@](C)(Cc1ccccc1F)NC(=O)[C@@H](NC(=O)CNC(=O)[C@H](CCC(=O)O)NC(=O)C(C)(C)NC(=O)[C@@H](N)Cc1ccc(O)cc1)[C@@H](C)O)[C@@H](C)O)[C@@H](C)CC)C(=O)N[C@@H](C)C(=O)N[C@@H](CCC(N)=O)C(=O)NC(C)(C)C(=O)N[C@@H](CCCCNC(=O)COCCOCCNC(=O)COCCOCCNC(=O)CCCCCCCCCCCCC(=O)O)C(=O)N[C@@H](Cc1ccccc1)C(=O)N[C@H](C(=O)N[C@H](CCC(=O)O)C(=O)N[C@@](C)(Cc1ccc(O)cc1)C(=O)N[C@@H](CC(C)C)C(=O)N[C@H](C(=O)N[C@@H](CCC(=O)O)C(=O)NCC(=O)NCC(=O)N1CCC[C@H]1C(=O)N[C@@H](CO)C(=O)N[C@@H](CO)C(=O)NCC(=O)N[C@@H](C)C(=O)N1CCC[C@H]1C(=O)N1CCC[C@H]1C(=O)N1CCC[C@H]1C(=O)N[C@@H](CO)C(=O)N[C@@H](CCCCNC(=O)COCCOCCNC(=O)COCCOCCNC(=O)CCCCCCCCCCCCC(=O)O)C(N)=O)[C@@H](C)CC)[C@@H](C)CC` [Example 258], the Emax on hGIPR (setting [3]) amounted to 90.3%; on hGLP-1R (setting [7]) it was 94.9%. The values for the EC50 at hGIPR (setting [4]), on hGCGR (setting [5]) and at hGCGR (setting [6]) were 0.0473 nM, more than 9950 nM and more than 9950 nM, respectively.

Turning to `CCCCCCCCCCCC(=O)N[C@@H](CCC(=O)NCCOCCOCC(=O)NCCOCCOCC(=O)NCCCC[C@H](NC(=O)[C@H](CO)NC(=O)[C@@H]1CCCN1C(=O)[C@@H]1CCCN1C(=O)[C@@H]1CCCN1C(=O)[C@H](C)NC(=O)CNC(=O)[C@H](CO)NC(=O)[C@H](CO)NC(=O)[C@@H]1CCCN1C(=O)CNC(=O)CNC(=O)[C@H](CCC(=O)O)NC(=O)[C@@H](NC(=O)[C@H](CC(C)C)NC(=O)[C@](C)(Cc1ccc(O)cc1)NC(=O)[C@@H](CCC(=O)O)NC(=O)[C@@H](NC(=O)[C@H](Cc1ccccc1)NC(=O)[C@H](CCC(=O)O)NC(=O)C(C)(C)NC(=O)[C@H](CCC(N)=O)NC(=O)[C@H](C)NC(=O)[C@H](CCCCNC(=O)COCCOCCNC(=O)COCCOCCNC(=O)CC[C@H](NC(=O)CCCCCCCCCCC)C(=O)O)NC(=O)[C@H](CCCN)NC(=O)[C@H](CC(=O)O)NC(=O)[C@H](CC(C)C)NC(=O)[C@](C)(CC(C)C)NC(=O)[C@@H](NC(=O)[C@H](CO)NC(=O)[C@H](Cc1ccc(OC)cc1)NC(=O)[C@H](CC(=O)O)NC(=O)[C@H](CO)NC(=O)[C@@H](NC(=O)[C@](C)(Cc1ccccc1F)NC(=O)[C@@H](NC(=O)CNC(=O)[C@H](CCC(=O)O)NC(=O)C(C)(C)NC(=O)[C@@H](N)Cc1ccc(O)cc1)[C@@H](C)O)[C@@H](C)O)[C@@H](C)CC)[C@@H](C)CC)[C@@H](C)CC)C(N)=O)C(=O)O` [Example 291], the EC50 on hGIPR (setting [8]) was 0.833 nM; at hGIPR (setting [4]) it was 0.012 nM; on hGCGR (setting [5]), more than 9950 nM; at hGCGR (setting [6]) it was more than 9950 nM; at hGLP-1R (setting [6]) it was 0.207 nM. The Emax on hGIPR (HEK293, 0.1% bovine casein and 1.0% human serum albumin, percent of maximal response to GIP(1-42)NH2) was determined as 92.9%; on hGLP-1R (setting [9]) it was 100%; at hGLP-1R (setting [7]) it was 97.6%.

`CC[C@H](C)[C@H](NC(=O)[C@H](CC(C)C)NC(=O)[C@](C)(Cc1ccc(O)cc1)NC(=O)[C@@H](CCC(=O)O)NC(=O)[C@@H](NC(=O)[C@H](Cc1ccccc1)NC(=O)[C@H](CCC(=O)O)NC(=O)C(C)(C)NC(=O)[C@H](CCC(N)=O)NC(=O)[C@H](C)NC(=O)[C@H](CCCCNC(=O)COCCOCCNC(=O)CC[C@H](NC(=O)CCCCCCCCCCCCC(=O)O)C(=O)O)NC(=O)[C@H](CCCN)NC(=O)[C@H](CC(=O)O)NC(=O)[C@H](CC(C)C)NC(=O)[C@](C)(CC(C)C)NC(=O)[C@@H](NC(=O)C(C)(C)NC(=O)[C@H](Cc1ccc(O)cc1)NC(=O)[C@H](CC(=O)O)NC(=O)[C@H](CO)NC(=O)[C@@H](NC(=O)[C@](C)(Cc1ccccc1F)NC(=O)[C@@H](NC(=O)CNC(=O)[C@H](CCC(=O)O)NC(=O)C(C)(C)NC(=O)[C@@H](N)Cc1ccc(O)cc1)[C@@H](C)O)[C@@H](C)O)[C@@H](C)CC)[C@@H](C)CC)C(=O)N[C@@H](CCCCNC(=O)COCCOCCNC(=O)CC[C@H](NC(=O)CCCCCCCCCCCCC(=O)O)C(=O)O)C(=O)NCC(=O)NCC(=O)N1CCC[C@H]1C(=O)N[C@@H](CO)C(=O)N[C@@H](CO)C(=O)NCC(=O)N[C@@H](C)C(=O)N1CCC[C@H]1C(=O)N1CCC[C@H]1C(=O)N1CCC[C@H]1C(=O)N[C@@H](CO)C(N)=O` [Example 367]: the values for the Emax on hGIPR (setting [3]) and at hGLP-1R (setting [7]) were 112% and 93.9%, respectively. Further, the values for the EC50 at hGIPR (setting [4]), on hGCGR (setting [6]) and at hGLP-1R (setting [6]) were 0.019 nM, more than 9950 nM and 0.366 nM, respectively.

On to `CC[C@H](C)[C@H](NC(=O)[C@H](CCCN)NC(=O)[C@H](CC(=O)O)NC(=O)[C@H](CC(C)C)NC(=O)[C@](C)(CC(C)C)NC(=O)[C@@H](NC(=O)[C@H](CO)NC(=O)[C@H](Cc1ccncc1)NC(=O)[C@H](CC(=O)O)NC(=O)[C@H](CO)NC(=O)[C@@H](NC(=O)[C@](C)(Cc1ccccc1F)NC(=O)[C@@H](NC(=O)CNC(=O)[C@H](CCC(=O)O)NC(=O)C(C)(C)NC(=O)[C@@H](N)Cc1ccc(O)cc1)[C@@H](C)O)[C@@H](C)O)[C@@H](C)CC)C(=O)N[C@@H](C)C(=O)N[C@@H](CCC(N)=O)C(=O)NC(C)(C)C(=O)N[C@@H](CCC(=O)O)C(=O)N[C@@H](Cc1ccccc1)C(=O)N[C@H](C(=O)N[C@@H](CCCCNC(=O)COCCOCCNC(=O)COCCOCCNC(=O)CC[C@H](NC(=O)CCCCCCCCCCCCC(=O)O)C(=O)O)C(=O)N[C@@](C)(Cc1ccc(O)cc1)C(=O)N[C@@H](CC(C)C)C(=O)N[C@H](C(=O)N[C@@H](CCC(=O)O)C(=O)NCC(=O)NCC(=O)N[C@@H](CCCCNC(=O)COCCOCCNC(=O)COCCOCCNC(=O)CC[C@H](NC(=O)CCCCCCCCCCCCC(=O)O)C(=O)O)C(=O)N[C@@H](CO)C(=O)N[C@@H](CO)C(=O)NCC(=O)N[C@@H](C)C(=O)N1CCC[C@H]1C(=O)N1CCC[C@H]1C(=O)N1CCC[C@H]1C(=O)N[C@@H](CO)C(N)=O)[C@@H](C)CC)[C@@H](C)CC` [Example 71], for which the EC50 on hGIPR (setting [8]) was 3.07 nM; on hGCGR (setting [5]) it was more than 9950 nM; on hGCGR (setting [2]), more than 9950 nM; on hGLP-1R (setting [5]), 43.7 nM; at hGLP-1R (setting [2]), 0.246 nM. Further, the results for the Emax at hGIPR (setting [1]) and on hGLP-1R (setting [9]) were 93.8 ± 3.59% and 100%, respectively.
